Reference: patent publication US20140023611A1 (priority 2010, published 2014)

Tests used:
[1] = tested on: uptake of phosphate from the intestine; assay: In vivo assay: bolus phosphorus (phosphate) challenge; parameters: species or system Sprague-Dawley rats; conditions: Structure (V) examples, Table 4, rat; for Serum increase [Pi] mg/dL from baseline low PI state: mean ± SD
Procedure: (§1) By pretreating animals with a low phosphorus diet followed by the subsequent dosing of a phosphorus bolus, serum phosphorus levels were monitored after 30 minutes as a surrogate for intestinal phosphorus absorption. […] The in vivo bolus phosphorus challenge model used here mimics this model in rats.
Male, 7-week-old Sprague-Dawley rats (Charles-River laboratories international, Hollister, Calif.) were allowed to acclimatize for a minimum of 3 days before switching to a synthetic low-phosphorus diet (TD.85010, Harlan Teklad, Madison, Wis.) which contains 0.1% phosphorus and 0.6% calcium. At day 5, testing compounds or vehicle alone (as indicated) were orally administered at the indicated dose in a volume of 5 ml/kg, followed by a bolus gavage of monobasic sodium phosphate (1 mmol in 1 ml) 15 min after compound dosing. Serum was collected via retroorbital bleeding 30 min post phosphate bolus and phosphate levels were determined utilizing an ACE ALERA blood chemistry analyzer (Alfa Wassermann Diagnostic Technologies, West Caldwell, N.J.). […]
Male, 7-week-old Sprague-Dawley rats (Charles-River laboratories international, Hollister, Calif.) were allowed to acclimate for a minimum of 3 days before switching to a synthetic low-phosphorus diet (TD.85010, Harlan Teklad, Madison, Wis.) which contains 0.1% phosphorus and 0.6% calcium. At day 5, testing compounds or vehicle alone (as indicated) were orally administered at the indicated dose in a volume of 5 ml/kg, followed by a bolus gavage of monobasic sodium phosphate (1 mmol in 1 ml) 15 min after compound dosing. Serum was collected via retroorbital bleeding 30 min post phosphate bolus and phosphate levels were determined utilizing an ACE ALERA blood chemistry analyzer (Alfa Wassermann Diagnostic Technologies, West Caldwell, N.J.).
Serum was collected 30 minutes after gavage, and phosphate levels measured. […] The in vivo bolus phosphate challenge model used here mimics this model in rats.
Male, 7-week-old Sprague-Dawley rats (Charles-River laboratories international, Hollister, Calif.) were allowed to acclimatize for a minimum of 3 days before switching to a low-phosphorus diet (TD.85010, Harlan Teklad, Madison, Wis.) which contains 0.1% phosphorus and 0.6% calcium. At day 5, testing compounds or vehicle alone (as indicated) were orally administered at the indicated dose in a volume of 5 ml/kg, followed by a bolus gavage of monobasic sodium phosphate (1 mmol in 1 ml) 15 min after compound dosing. Serum was collected via retroorbital bleeding 30 min post phosphate bolus and serum phosphate levels were determined utilizing an ACE ALERA blood chemistry analyzer (Alfa Wassermann Diagnostic Technologies, West Caldwell, N.J.).
The representative data on effects of test compounds on serum phosphate levels are shown in Table 4 (data are expressed as mean±SD, with 6 animals per data point). The differences between groups were evaluated by one-way analysis of variance with Dunnett's post hoc tests.

NaPi2b = assay: Competition with phosphate: Pi uptake assay repeated at 2.1 vs 0.1 mM phosphate; format: cell-based; conditions: potency at 2.1 vs 0.1 mM phosphate
How it was run: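 Phosphate uptake assay with compound, performed at 0.1 mM phosphate and repeated at 2.1 mM phosphate, with IC50 values determined at each phosphate concentration to assess competition with phosphate.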

[2] = tested on: Uptake of Phosphorus from the Intestine; assay: In vivo bolus phosphorus challenge; parameters: species or system rat; conditions: Sprague-Dawley rats on low-phosphorus diet; oral Drug Dose 30, 15 min before phosphate bolus; serum 30 min post bolus
Procedure: as §1
Male, 7-week-old Sprague-Dawley rats (Charles-River laboratories international, Hollister, Calif.) were allowed to acclimatize for a minimum of 3 days before switching to a synthetic low-phosphorus diet (TD.85010, Harlan Teklad, Madison, Wis.) which contains 0.1% phosphorus and 0.6% calcium. At day 5, testing compounds or vehicle alone (as indicated) were orally administered at the indicated dose in a volume of 5 ml/kg, followed by a bolus gavage of monobasic sodium phosphate (1 mmol in 1 ml) 15 min after compound dosing. Serum was collected via retroorbital bleeding 30 min post phosphate bolus and phosphate levels were determined utilizing an ACE ALERA blood chemistry analyzer (Alfa Wassermann Diagnostic Technologies, West Caldwell, N.J.).
The extent of inhibition by test compounds on the elevation of serum phosphate levels in response to the bolus of phosphorus is shown in Table 12 (data are expressed as % Inhibition, with 6-10 animals per data point). The differences between groups were evaluated by one-way analysis of variance with Dunnett's post hoc tests.

[3] = oral 30 mg/kg, vehicle 5.0 ± 1.3

Row | Structure (SMILES) | % Decrease in serum [Pi] ([1]; oral 30 mg/kg) [%] | Serum increase [Pi] mg/dL from baseline low PI state [1, 3] [mg/dL] | % Decrease in serum [Pi] ([1]; oral 10 mg/kg) [%] | Serum increase [Pi] mg/dL from baseline low PI state ([1]; oral 10 mg/kg) [mg/dL] | Competitive with respect to Pi? (NaPi2b) | % Inhibition of Serum P elevation [2]
1 | COCCNC(=O)CCSCc1cccc(C(=O)Nc2ccc(N3CCCCC3)cc2C(=O)N/N=C/c2ccc(Cl)c(C(F)(F)F)c2)c1 [Ex. 49, (E)-N-(2-(2-(4-chloro-3-(trifluoromethyl)benzylidene)hydrazinecarbonyl)-4-(piperidin-1-yl)phenyl)-3-((3-(2-methoxyethylamino)-3-oxopropylthio)methyl)benzamide] | 24 | 3.8 ± 0.8 |  |  |  | 
2 | O=C(NCCN1CCOCC1)c1cccc(C(=O)Nc2ccc(N3CCCCC3)cc2C(=O)N/N=C/c2ccc(Cl)c(C(F)(F)F)c2)c1 [Ex. 53, (E)-N^1-(2-(2-(4-chloro-3-(trifluoromethyl)benzylidene)hydrazinecarbonyl)-4-(piperidin-1-yl)phenyl)-N3-(2-morpholinoethyl)isophthalamide] | 79 | 1.1 ± 0.8 | 62 | 1.9 ± 1.1 |  | 
3 | O=C(O)c1cccc(SCc2cccc(C(=O)Nc3ccc(N4CCCCC4)cc3-c3cc(C(=O)NCc4cccc(C(F)(F)F)c4)ccn3)c2)c1 [Example 8.1, 3-(3-(4-(piperidin-1-yl)-2-(4-(3-(trifluoromethyl)benzylcarbamoyl)pyridin-2-yl)phenylcarbamoyl)benzylthio)benzoic acid] |  |  |  |  | No | 
4 | CN(CCN1CCOCC1)C(=O)c1cccc(C(=O)Nc2ccc(N3CCCCC3)cc2-c2cc(C(=O)NCc3cccc(C(F)(F)F)c3)ccn2)c1 [Example 80, N1-Methyl-N1-(2-morpholinoethyl)-N3-(4-(piperidin-1-yl)-2-(4-((3-(trifluoromethyl)benzyl)carbamoyl)pyridin-2-yl)phenyl)isophthalamide] |  |  |  |  | No | 20-30%
